The record followed here is patent US7282342B2, “Methods for detecting weakly immunogenic analytes” (Neuren Pharmaceuticals Ltd., priority 2001, dated 2007).

Residues, ends and D or L forms follow the SMILES beside them.

In assay [1] the test system is CK5 antibody. Kind of assay: modified double antibody radioimmunoassay, displacement of I125-labeled Bolton and Hunter derivatized GPE. To be noted: test substances Bolton and Hunter derivatized; CK5 at 1:18,000. The assay is classed as binding, rabbit.
For assay [2], the system named is CK5 antibody. Kind of assay: standard double antibody radioimmunoassay, displacement of I125-labeled YGPE. The class given is binding, rabbit. To be noted: CK5 diluted 1:600; I125-labeled YGPE tracer. On the procedure: The CK5 antibody was characterized using a standard double antibody radioimmunoassay technique. Tubes containing either 100 μL 0.02 M phosphate buffered saline assay buffer or peptide (GPE, YGPE (SEQ ID NO:4), KYFGGPE (SEQ ID NO:5), or IGF-1) dissolved in assay buffer at various concentrations were preincubated with CK5 antibody (diluted at 1:600) for 24 h at 4° C. I^125-labeled YGPE (10,000 cpm) was then added to the tubes. After a further 48 h incubation at 4° C., the bound and free GPE were separated by adding donkey anti-rabbit serum (1:100). The tubes were incubated with this second antibody overnight at 4° C. before centrifugation (3,200 rpm for 30 min), after which the supernatant was aspirated, and the precipitate counted in a gamma counter. One antibody, CK5, was identified. […] Unlabeled GPE was able to displace I^125-labeled YGPE with an ED50 of approximately 200 ng/tube.

As for `NCC(=O)N1CCC[C@H]1C(=O)O` [GP, glycyl-L-proline] (H-Gly-Pro-OH), the “cross-reactivity with CK5 antibody” value in assay [1] is “does not cross-react significantly”.

Regarding `O=C(O)CC[C@H](NC(=O)[C@@H]1CCCN1)C(=O)O` [PE, L-prolyl-L-glutamic acid] (H-Pro-Glu-OH), the “cross-reactivity with CK5 antibody” value in assay [1] was “does not cross-react significantly”.

On to `N[C@@H](CCC(=O)O)C(=O)O` [glutamic acid], for which, in assay [1], the “cross-reactivity with CK5 antibody” value is “does not cross-react significantly”.

For `NCC(=O)O` [glycine], the “cross-reactivity with CK5 antibody” value in assay [1] was “does not cross-react significantly”.

For `O=C(O)[C@@H]1CCCN1` [proline], in assay [1], the “cross-reactivity with CK5 antibody” value is “does not cross-react significantly”.

For `NC(N)=O` [urea], in assay [1], the “cross-reactivity with CK5 antibody” value is “does not cross-react significantly”.

“IGF-1: insulin-like growth factor-1, the GPE parent molecule”: the “cross-reactivity with CK5 antibody” value in assay [2] and in assay [1] was “does not cross-react significantly” in each case.
